From PubChem BioAssay (NCI)
Where “and” joins values, the source holds several entries; their conditions need not be identical. Identical values can stand only once.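 A five-concentration, 48-hour dose response in 96-well plates underlies each endpoint, interpolated linearly between surrounding concentrations. GI50 is the concentration that inhibits growth by half. TGI denotes the concentration required for complete inhibition of growth.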

Key:
Assay in all cases: NCI anticancer screen, dose series, 48 h
[1] = system: SK-MEL-5 melanoma
[2] = system: LOX IMVI melanoma
[3] = system: NCI-H226 lung
[4] = system: UACC-257 melanoma
[5] = system: SNB-75 CNS
[6] = system: SN12C renal
[7] = system: SK-MEL-28 melanoma
[8] = system: RXF 393 renal
[9] = system: NCI/ADR-RES ovarian
[10] = system: MDA-MB-435

SMILES | TGI [1] | TGI [2] [µM] | TGI [3] | TGI [4] | TGI [5] | TGI [6] | TGI [7] | TGI [8] | TGI [9] [µM] | TGI [10] | GI50 [9] [µM] | GI50 [10] [µM] | GI50 [4] [µM] | GI50 [5] [µM] | GI50 [1] [µM] | GI50 [2] [µM] | GI50 [3] [µM] | GI50 [6] | GI50 [7] [µM]
CC(=O)[O-].CC(=O)[O-].O=C(N/N=C/c1cc(Cl)cc(Cl)c1[OH2+])c1ccncc1.[Co+2] | > 100 µM | > 100 | > 100 µM | > 100 µM | > 100 µM | > 100 µM | > 100 µM | > 100 µM |  |  |  |  |  |  |  |  |  |  | 
Cc1ccc2c(c1)NC(=O)CCSSCCC(=O)N2 | > 100 µM | > 100 | > 100 µM | > 100 µM |  | > 100 µM | > 100 µM | > 100 µM | > 100 | > 100 µM |  |  |  |  |  |  |  |  | 
CC(=O)c1ccc(Oc2ccc(/C(C)=N\N=C(N)N)cc2)cc1 | 6.98 µM | 13.1 |  | 19 µM | 5.15 µM | 13.4 µM | 17.4 µM |  |  |  |  |  |  |  |  |  |  |  | 
O=C(O)CSc1cc(-c2ccccc2)nc2ccccc12 | > 100 µM | > 100 |  | > 100 µM |  | > 100 µM | > 100 µM | 94.8 µM | > 100 | 38 µM |  |  |  |  |  |  |  |  | 
O=c1[nH]c2ccc(CC(=S)N3CCOCC3)cc2s1 | > 100 µM | > 100 | > 100 µM | > 100 µM |  | > 100 µM | > 100 µM | > 100 µM | > 100 | > 100 µM |  |  |  |  |  |  |  |  | 
O=C(O)CSCC(=O)Nc1ccc2cccc3c2c1CC3 | > 100 µM | > 100 |  | > 100 µM | > 100 µM | > 100 µM | > 100 µM | > 100 µM | > 100 | > 100 µM |  |  |  |  |  |  |  |  | 
CC(=O)O[C@H]1CC[C@]2(C)[C@H]3CC[C@@H]4[C@H]5[C@H](C(C)C)CC[C@]5(C(=O)OCC(CO)(CO)N=C(N)N)CC[C@@]4(C)[C@]3(C)CC[C@H]2C1(C)C |  |  |  | 3.97 µM | 3.23 µM |  |  |  | 5.17 | 3.11 µM | 2.23 | 1.64 | 1.82 | 1.57 |  |  |  |  | 
O=C1OCC(C#Cc2ccccc2)=C1Cl | 23.5 µM | 14.9 | 7.13 µM | 40.2 µM | 46.2 µM | 12.3 µM | 5.16 µM |  | 13.8 | 42.6 µM | 3.32 | 6.92 | 4.34 | 19.8 | 10 | 4.31 | 3.11 | 2.89 µM | 1.7
O=P(O)(O)C(CSc1ccccc1)P(=O)(O)O | > 100 µM | > 100 | > 100 µM | > 100 µM | > 100 µM | > 100 µM | > 100 µM | > 100 µM | > 100 |  |  |  |  |  |  |  |  |  | 
CC(=O)C1=C(N=[N+]=[N-])c2cccc3cccc(c23)C1=O | 38.1 µM | 30.1 | 64.2 µM | 43.8 µM | 66.9 µM | 39.7 µM |  | 28 µM | 70.9 | 48.5 µM |  |  |  |  |  |  |  |  | 
C1COC(NC(C2CC2)C2CC2)=N1 | > 100 µM | > 100 | > 100 µM | > 100 µM | > 100 µM |  | > 100 µM | > 100 µM | > 100 | > 100 µM |  |  |  |  |  |  |  |  | 
CC[C@@]1(O)C(=O)OCc2c1cc1n(c2=O)Cc2c-1nc1ccccc1c2CC[Si](C)(C)C | < 0.0425 µM |  | < 0.0467 µM |  |  |  | > 100 µM | 0.371 µM | > 100 | > 100 µM |  |  |  |  |  |  |  |  | 
N#Cc1c(-c2ccccc2)/c(=C\O)c(=O)n2c1nc1ccccc12 | > 100 µM |  | > 100 µM | > 100 µM | 91.9 µM | > 100 µM | > 100 µM | > 100 µM | > 100 | > 100 µM |  |  |  |  |  |  |  |  | 
O=C(NO)c1coc2ccccc2c1=O | > 100 µM | > 100 |  | > 100 µM | > 100 µM | > 100 µM | > 100 µM | > 100 µM |  |  |  |  |  |  |  |  |  |  | 
C=C(C=O)c1c2c(nc3ccccc13)C(=O)c1ccccc1C2=O | 0.339 µM | 45 | 1.97 µM |  | 2.18 µM | 41.3 µM |  |  |  | > 100 µM |  |  |  |  |  |  |  |  | 
O=C(/C=C/c1ccc(O)c(O)c1)OCCc1cccc2ccccc12 | 5.31 µM |  | 58.6 µM | 28.2 µM | 9.57 µM | 7.96 µM | 16.9 µM | 25.1 µM | 29.4 | 4.65 µM |  |  |  |  |  |  |  |  | 
C/C(=N\Nc1ccc([N+](=O)[O-])cc1[N+](=O)[O-])c1ccc2ccccc2n1 | > 100 µM |  | > 100 µM | > 100 µM | > 100 µM | > 100 µM | > 100 µM | > 100 µM | > 100 | > 100 µM |  |  |  |  |  |  |  |  | 
COC(=O)NCCc1[nH]nc2c1C(=O)C=C(Nc1ccccc1)C2=O | 32.2 µM | 75.8 |  | 32.3 µM | > 100 µM | > 100 µM |  | > 100 µM | 70.3 | 31.1 µM |  |  |  |  |  |  |  |  | 
COc1ccc(/C=C2\CSC/C(=C\c3ccc(OC)c(OC)c3OC)C2=O)c(OC)c1OC | 88.6 µM | 83.3 | > 100 µM | > 100 µM |  | 78.2 µM | > 100 µM | 53.7 µM | > 100 |  |  |  |  |  |  |  |  |  | 
COc1ccc(C2SCC(=O)N2c2ccc(-c3ccc(-n4c(-c5ccccc5)nc5ccccc5c4=O)cc3)cc2)cc1 (stereo not drawn) | > 100 µM | > 100 | > 100 µM | > 100 µM |  | > 100 µM | > 100 µM |  | > 100 | > 100 µM |  |  |  |  |  |  |  |  | 
COc1cc([C@@H]2c3cc4c(cc3[C@@H](NCCNCCO)[C@H]3COC(=O)[C@H]23)OCO4)cc(OC)c1O | 5.14 µM and 6.05 µM |  | 4.97 µM and 4.5 µM | > 30.5 µM and 39.9 µM | 8.64 µM and 5.94 µM | 24.1 µM and 3.19 µM | 9.5 µM and 9.02 µM | 8.18 µM and 4.94 µM | > 100 | 35 µM and 31.6 µM |  |  |  |  |  |  |  | 0.934 µM and 0.331 µM | 
N#CCC(=O)Nn1c(CC#N)nnc1Cc1ccccc1 | > 100 µM |  | > 100 µM | > 100 µM | > 100 µM |  | > 100 µM | > 100 µM | > 100 | > 100 µM |  |  |  |  |  |  |  |  | 
CC1C(c2ccc3c(c2)OCO3)c2cc3c(cc2OC1N1CCCC1)OCO3 (stereo not drawn) | 47.2 µM | > 100 |  | > 100 µM | 61.7 µM | > 100 µM | > 100 µM |  | 87.7 | 23.7 µM |  |  |  |  |  |  |  |  | 
